# From patent publication US9751845B2, “5-HT2B antagonists” (National Institute of Biological Sciences, Beijing, priority 2014, dated 2017)
# Molecular target: T1, 5-HT2B Receptors (Homo sapiens, UniProt P41595)
# T1 construct: expressed in transfected cells
# Assay: Antagonist activity assay (FLIPR, CHO-K1/5-HT2B stable cell line)
# Format: cell-based
# Settings: for inhibition at 1 µM: 1 μM compound, CHO-K1/5-HT2B cells stimulated with 12 nM (EC80) 5-HT; for IC50: CHO-K1/5-HT2B cells, antagonist mode vs EC80 5-HT
# Method: Briefly, CHO-K1 cells expressing 5-HT2B were seeded in a 384-well black-wall, clear-bottom plate at a density of 20,000 cells per well in 20 μL of growth medium (10% dialyzed FBS+90% F12), 18 hours prior to the day of experiment and maintained at 37° C./5% CO2. 20 μL of dye-loading solution and 10 μL of tested compound solution (at concentrations five times to the final assay concentrations) were added into the well. Then the plate was placed into a 37° C. incubator for 60 minutes, followed by 15 minutes at room temperature. At last, 12.5 μL of control agonist (at concentrations five times to the EC80 concentrations) was added. The control agonist was added to reading plate at 20 s and the fluorescence signal was monitored for an additional 100 s (21 s to 120 s). In screening, cells stimulated with assay buffer (HBSS-HEPES) containing 0.1% DMSO were chosen as background; cell stimulated with 12 nM (EC80 of the cell line) of 5-HT were chosen as the agonist control; cell treated with SB206553 were chosen as positive control of the screening.
# Data acquisition and analyses are performed using ScreenWorks (version 3.1) program. The average fluorescent intensity value during 1 s to 20 s calculated as the baseline reading. The relative fluorescent units (ΔRFU) intensity values were calculated with the maximal fluorescent units (21 s to 120 s) subtracting the average value of baseline reading. The % inhibition of the test article is calculated from the following equation: % inhibition=[1−(ΔRFUCompound−ΔRFUBackground)/(ΔRFUAgonist control−ΔRFUBackground)]*100
# T1 sequence (P41595 whole entry): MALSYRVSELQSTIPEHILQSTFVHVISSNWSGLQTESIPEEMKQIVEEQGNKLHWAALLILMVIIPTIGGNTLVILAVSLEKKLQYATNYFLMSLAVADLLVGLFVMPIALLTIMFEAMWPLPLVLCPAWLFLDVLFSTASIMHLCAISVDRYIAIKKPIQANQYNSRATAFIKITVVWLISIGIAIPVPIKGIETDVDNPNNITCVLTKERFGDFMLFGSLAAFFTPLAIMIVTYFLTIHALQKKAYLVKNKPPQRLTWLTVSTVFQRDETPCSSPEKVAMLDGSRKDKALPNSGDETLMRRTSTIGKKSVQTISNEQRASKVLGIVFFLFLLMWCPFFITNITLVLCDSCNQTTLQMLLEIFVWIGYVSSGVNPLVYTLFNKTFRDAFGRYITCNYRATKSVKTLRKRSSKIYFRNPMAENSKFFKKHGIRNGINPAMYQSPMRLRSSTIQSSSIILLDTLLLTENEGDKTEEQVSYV
Compound,inhibition at 1 µM [%],IC50 [nM]
NC1=NC2(CCCCC2)NC(Nc2ccc(F)c(F)c2)=N1 [3-r],66.5 ± 2.1,–
Cc1cc(C)cc(NC2=NC(N)=NC3(CCCCC3)N2)c1 [3-t],69.1 ± 2.7,476
NC1=NC2(CCCCC2)NC(Nc2cccc(I)c2)=N1 [3-f],102 ± 4.5,–
Cc1cccc(C)c1NC1=NC(N)=NC2(CCCC2)N1 [2-d],< 50,–
NC1=NC2(CCCCC2)NC(Nc2ccccc2)=N1 [3-a],< 50,–
CCOC(=O)c1cc(NC2=NC(N)=NC3(CCCCC3)N2)ccc1C [3-v],108 ± 1.5,–
CCN(CC)C(=O)c1cccc(NC2=NC(N)=NC3(CCCCC3)N2)c1 [3-l],< 50,–
COc1cccc(NC2=NC(N)=NC3(CCCCC3)N2)c1 [3-g],84.6 ± 1.2,280
NC1=NC2(CCCCC2)NC(Nc2cccc(C(=O)O)c2)=N1 [3-h],< 50,–
NC1=NC2(CCCCC2)NC(Nc2cccc(Cl)c2)=N1 [3-e1],~95.5,–
CC1(C)N=C(N)N=C(Nc2ccc(I)cc2)N1 [1-f],< 50,2510
CCOC(=O)c1cccc(NC2=NC(N(C)C)=NC3(CCCCC3)N2)c1 [3-y],91.8 ± 0.4,284
NC1=NC2(CCCCC2)NC(Nc2cccc(F)c2)=N1 [3-d],90.9 ± 2.9,–
CN(C)c1ccc(NC2=NC(N)=NC3(CCCCC3)N2)cc1 [3-o],< 50,–
Cc1ccc(NC2=NC(N)=NC3(CCCCC3)N2)cc1 [3-m],50.2 ± 8,486
CC1(C)N=C(N)N=C(Nc2ccc(Cl)cc2)N1 [1-d],93.1 ± 4.2,1640
COc1cccc(NC2=NC(N)=NC3(CCCC3)N2)c1 [2-a],63.4 ± 15.1,1060
COc1ccccc1NC1=NC(N)=NC2(CCCCC2)N1 [3-c],< 50,–
CCOc1ccc(NC2=NC(N)=NC(C)(C)N2)cc1 [1-g],< 50,–
NC1=NC2(CCCCC2)NC(Nc2ccc(Cl)cc2)=N1 [3-n],57.2 ± 5.4,531

Compound,inhibition at 1 µM [%],IC50 [nM]
Cc1ccc(NC2=NC(N)=NC3(CCCCC3)N2)cc1C [3-s],95.7 ± 1.9,177
CCOC(=O)c1ccc(NC2=NC(N)=NC3(CCCCC3)N2)cc1 [3-p],109 ± 4.2,–
"CCOC(=O)c1cccc(NC2=NC(NC)=NC3(CCCCC3)N2)c1 [3-x, ethyl 3-(4-(methylamino)-1,3,5-triazaspiro[5.5]undeca-2,4-dien-2-ylamino)benzoate]",108,49.4
CCOC(=O)c1cc(NC2=NC(N)=NC3(CCCCC3)N2)cc(Br)c1C [3-w],92.8 ± 3.1,–
NC1=NC2(CCCC2)NC(Nc2ccc(F)cc2)=N1 [2-b],< 50,–
COc1ccccc1NC1=NC(N)=NC(C)(C)N1 [1-b],< 50,–
CC1(C)N=C(N)N=C(Nc2ccc(Br)cc2)N1 [1-e],< 50,–
CC1(C)N=C(N)N=C(Nc2cccc(Br)c2)N1 [1-c],75.9 ± 11.5,328
CC1(C)N=C(N)N=C(Nc2ccccc2)N1 [1-a],< 50,–
Cc1ccccc1NC1=NC(N)=NC2(CCCCC2)N1 [3-b],< 50,–
CCCOC(=O)c1cccc(NC2=NC(N)=NC3(CCCCC3)N2)c1 [3-k],110 ± 2.7,18.1
NC1=NC2(CCCCC2)NC(Nc2cccc(Br)c2)=N1 [3-e2],97.4 ± 2.2,33.4
"CCNC(=O)c1cccc(NC2=NC(N)=NC3(CCCCC3)N2)c1 [3-j, 3-(4-amino-1,3,5-triazaspiro[5.5]undeca-2,4-dien-2-ylamino)-N-ethylbenzamide]",95.5 ± 4.8,104
COc1ccccc1NC1=NC(N)=NC2(CCCC2)N1 [1-h],< 50,–
Cc1ccc(C)c(NC2=NC(N)=NC3(CCCC3)N2)c1 [2-c],< 50,–
NC1=NC2(CCCCC2)NC(Nc2ccc(F)cc2F)=N1 [3-q],< 50,–
COc1ccc(OC)c(NC2=NC(N)=NC3(CCCCC3)N2)c1 [3-u],81.1 ± 6.7,622
CCOC(=O)c1cccc(NC2=NC(N)=NC3(CCCCC3)N2)c1 [3-i],107.2 ± 0.6,27.3
Cc1cccc(NC2=NC(N)=NC3(CCCC3)N2)c1 [1-i],< 50,–
CCCC(=O)c1cccc(NC2=NC(N)=NC3(CCCCC3)N2)c1 [3-z],106 ± 0.8,35.8
